Assay results reported in patent US12590056B2, “IGF2BP2 inhibitors and uses thereof” (CITY OF HOPE, priority 2020, dated 2026).
“Also recorded” adds a separate entry of the source.

Legend:
[1] = target: T1, IGF2BP2 (Homo sapiens, UniProt Q9Y6M1); assay: Biological assays of IGF2BP2 inhibition (purified fractions and synthesized compounds); conditions: for effectiveness, synthesized compound: compounds synthesized based on the predicted structures
Description: (§1) Virtual screening of library compounds and lead compound identification. NCI DTP library of approximately 260,000 compounds was screened. Screening included docking on the KH3 domain of IGF2BP2. Over 500 compounds were identified for experimental validation. NSC69557, termed CWI1, was identified as a top hit. Mass spectrometry (MS) identified CWI1 as a mixture including three major peaks: CWI1, CWI1-1, and CWI1-2. Their structures were predicted based on nuclear magnetic resonance (NMR) and MS data. The compound peaks for the predicted CWI1-1 and CWI1-2 were purified by HPLC. […] CWI1, CWI1-1, and CWI1-2 were synthesized based on the predicted structures. […] Thus, the structures of CWI1-1 and CWI1-2 were confirmed.

[2] = target: T1, IGF2BP2; assay: Cellular Thermal Shift Assay (CETSA); format: binding; conditions: CETSA also run for IGF2BP1 and IGF2BP3; western blot
Method: FIGS. 2A-2C. […] Cellular Thermal Shift Assay (CETSA) was conducted. The principle of the assay is unbound proteins denature and precipitate at elevated temperatures, while drug-bound proteins tend to remain in solution. Cells are seeded and treated. Cell pellets are washed, harvested, and heated. Cells are lysed and centrifuged. Western blot is performed. FIG. 2A: Results of CETSA for IGF2BP2. FIG. 2B: Results of CETSA for IGF2BP1. FIG. 2C: Results of CETSA for IGF2BP3.

[3] = target: T1, IGF2BP2; assay: Drug Affinity Responsive Target Stability (DARTS) assay; format: binding; conditions: protection from degradation by proteases
Method: FIG. 3. […] Drug Affinity Responsive Target Stability (DARTS) assay was performed. The principle of the assay is binding of compound to proteins protects proteins from degradation by proteases.

[4] = target: IGF2BP2 binding to m^6A-modified single strand RNA (SS-m^6A) (Homo sapiens, UniProt Q9Y6M1); assay: RNA pull-down assay; format: biochemical
Description: (§2) FIGS. 4A-4B. CWI1-2 inhibits binding of IGF2BP2 to m^6A-modified RNA and suppresses expression of the oncogenic targets of IGF2BP2.

[5] = test system: IGF2BP2 target genes; assay: Expression of IGF2BP2 target genes and of IGF2BP2 after treatment; format: cell-based; conditions: after compound treatment
Description: as §2

[6] = test system: IGF2BP2-high AML cell lines; assay: Apoptosis in IGF2BP2-high AML cell lines; format: cell-based, human; conditions: 24-hour treatment
Description: (§3) FIGS. 6A-6B. Effects of CWI1-2 on apoptosis in human acute myeloid leukemia (AML) cells.

[7] = test system: IGF2BP2-low acute leukemia cell lines; assay: Apoptosis in IGF2BP2-low acute leukemia cell lines; format: cell-based, human; conditions: 24-hour treatment
Description: as §3

[8] = test system: IGF2BP2-high AML cell lines; assay: Cell differentiation in IGF2BP2-high AML cell lines; format: cell-based, human; conditions: 24-hour treatment
Description: (§4) FIGS. 7A-7B. Effects of CWI1-2 on cell differentiation in acute myeloid leukemia (AML).

[9] = test system: IGF2BP2-low acute leukemia cell lines; assay: Cell differentiation in IGF2BP2-low acute leukemia cell lines; format: cell-based; conditions: 24-hour treatment
Description: as §4

[10] = test system: primary murine MLL-AF9 AML cells; assay: Engraftment of AML cells in bone marrow transplant (BMT) recipient mice; format: in vivo; conditions: 5 mg/kg, i.v., daily for 7 days from ten days after BMT; peripheral blood 3 days after last treatment, flow cytometry
Method: (§5) FIGS. 8A-8B. […] FIG. 8A: Ten days after BMT with primary murine MLL-AF9 AML cells, recipient mice were given vehicle control (CT) or CWI1-2 daily for 7 days (5 mg/kg, i.v.). Peripheral blood was taken 3 days after the last treatment and assessed by flow cytometry.

[11] = Body weight of BMT recipient mice; format: in vivo; conditions: 5 mg/kg, i.v., daily for 7 days
Method: as §5

[12] = test system: human acute myeloid leukemia (AML) cells; assay: Anti-cancer activity in vitro (viability of human AML cells); format: cell-based
Description: FIGS. 5A-5E. IC50 of the lead compound CWI1-2 in human acute myeloid leukemia (AML) cells. FIG. 5A: Relative viability vs. CWI1-2 concentration in healthy bone marrow #1. FIG. 5B: Relative viability vs. CWI1-2 concentration in healthy bone marrow #2. FIG. 5C: Relative viability vs. CWI1-2 concentration in AML blast cells collected from a primary AML patient. FIG. 5D: Relative survival vs. log10 concentration of CWI1-2 in IGF2BP2-high AML cell lines. FIG. 5E: Relative survival vs. log10 concentration of CWI1-2 in IGF2BP2-low AML cell lines.

[13] = target: T2, KH3 domain of IGF2BP2 (Homo sapiens, UniProt Q9Y6M1); assay: Virtual screening of NCI DTP library (docking) followed by experimental validation; conditions: approximately 260,000 compounds screened, over 500 taken to experimental validation
T2 construct: Screening included docking on the KH3 domain of IGF2BP2
Description: as §1

Sequence of IGF2BP2 binding to m^6A-modified single strand RNA (SS-m^6A) (Q9Y6M1 whole entry): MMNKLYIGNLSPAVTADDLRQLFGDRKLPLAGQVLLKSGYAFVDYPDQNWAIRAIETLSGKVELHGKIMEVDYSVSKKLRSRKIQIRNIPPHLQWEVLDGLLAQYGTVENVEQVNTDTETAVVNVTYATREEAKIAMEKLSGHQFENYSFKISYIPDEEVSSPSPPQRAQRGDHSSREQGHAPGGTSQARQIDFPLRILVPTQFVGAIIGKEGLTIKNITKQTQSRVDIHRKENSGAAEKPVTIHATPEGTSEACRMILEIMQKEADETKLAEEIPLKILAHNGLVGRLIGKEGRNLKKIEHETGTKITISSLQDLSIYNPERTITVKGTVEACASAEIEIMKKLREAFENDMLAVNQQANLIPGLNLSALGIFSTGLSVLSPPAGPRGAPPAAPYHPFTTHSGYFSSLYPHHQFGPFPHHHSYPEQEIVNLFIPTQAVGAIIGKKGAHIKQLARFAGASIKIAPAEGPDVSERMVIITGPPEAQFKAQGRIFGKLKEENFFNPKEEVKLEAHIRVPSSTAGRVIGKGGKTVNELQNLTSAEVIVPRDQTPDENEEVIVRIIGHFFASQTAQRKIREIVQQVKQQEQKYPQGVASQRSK
T1 sequence (Q9Y6M1 whole entry, the tested form may be a part): as the sequence (Q9Y6M1 whole entry) above
T2 sequence (Q9Y6M1 427-492 limits assumed): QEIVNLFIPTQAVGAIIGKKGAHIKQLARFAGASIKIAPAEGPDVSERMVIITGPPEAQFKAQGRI

Structure (SMILES)	effectiveness, synthesized compound [1]	binding to IGF2BP2 (CETSA) [2]	binding to IGF2BP2 (DARTS) [3]	binding of IGF2BP2 to m^6A-modified RNA in the presence of compound [4]	IGF2BP2 expression [5]	expression of IGF2BP2 target genes [5]	apoptosis [6]	apoptosis [7]	cell differentiation [8]	cell differentiation [9]	engraftment of AML cells in BMT recipient mice [10]	effect on body weight of recipient mice [11]	anti-cancer activity in vitro [12]	activity as inhibitor of IGF2BP2, HPLC-purified fraction ([1]; fractions purified by HPLC from the NSC69557 mixture)	hit ranking in library screening [13]
NN/C(=N\N=C\c1cc(Cl)ccc1O)N/N=C\c1cc(Cl)ccc1O [CWI1-1]	effective	–	–	–	–	–	–	–	–	–	–	–	–	–	–
Oc1ccc(Cl)cc1/C=N\N/C(=N/N=C/c1cc(Cl)ccc1O)N/N=C/c1cc(Cl)ccc1O [CWI1-2]	much more effective	direct and preferential binding; also recorded: specifically binds to IGF2BP2	direct and preferential binding	decreased binding of IGF2BP2 to m^6A-modified single strand RNA (SS-m^6A); also recorded: prevent IGF2BP2 from binding to its mRNA targets; also recorded: specifically inhibits binding of IGF2BP2 to its mRNA targets with m^6A modification	without affecting IGF2BP2 expression	reduces expression of IGF2BP2 target genes; also recorded: suppressing expression of its oncogenic targets such as MYC oncogene	induces remarkable apoptosis; also recorded: significantly promoted	much less likely	induces remarkable cell differentiation; also recorded: significantly promoted	much less likely	inhibits engraftment; also recorded: remarkably inhibit engraftment	little effect on body weight	potent anti-cancer activities in vitro at nanomolar concentrations; also recorded: potent anti-cancer efficacy	most active inhibitor of IGF2BP2	–
N/C(=N\N=C\c1cc(Cl)ccc1O)N/N=C\c1cc(Cl)ccc1O [CWI1]	less effective	–	–	–	–	–	–	–	–	–	–	–	–	–	top hit
